Legend:
[1] = target: T1, D(4) dopamine receptor (Homo sapiens) (UniProt P21917); test: Inhibition of dopamine D4 receptor at 10 uM
T1 sequence (whole entry): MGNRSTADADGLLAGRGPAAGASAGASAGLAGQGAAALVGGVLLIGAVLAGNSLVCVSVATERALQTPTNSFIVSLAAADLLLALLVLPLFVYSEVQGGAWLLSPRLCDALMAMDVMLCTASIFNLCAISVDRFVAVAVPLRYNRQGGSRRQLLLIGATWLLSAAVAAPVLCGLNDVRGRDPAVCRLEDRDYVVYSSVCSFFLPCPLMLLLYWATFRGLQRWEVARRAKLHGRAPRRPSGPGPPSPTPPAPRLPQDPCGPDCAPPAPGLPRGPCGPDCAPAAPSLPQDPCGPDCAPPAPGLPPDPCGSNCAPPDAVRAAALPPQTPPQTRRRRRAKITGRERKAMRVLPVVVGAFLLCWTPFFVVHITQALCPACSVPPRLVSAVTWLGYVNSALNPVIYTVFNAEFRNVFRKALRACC

[2] = target: T2, 5-hydroxytryptamine receptor 3A (Homo sapiens) (UniProt P46098); test: Inhibition of 5HT3 receptor at 10 uM
T2 sequence (whole entry): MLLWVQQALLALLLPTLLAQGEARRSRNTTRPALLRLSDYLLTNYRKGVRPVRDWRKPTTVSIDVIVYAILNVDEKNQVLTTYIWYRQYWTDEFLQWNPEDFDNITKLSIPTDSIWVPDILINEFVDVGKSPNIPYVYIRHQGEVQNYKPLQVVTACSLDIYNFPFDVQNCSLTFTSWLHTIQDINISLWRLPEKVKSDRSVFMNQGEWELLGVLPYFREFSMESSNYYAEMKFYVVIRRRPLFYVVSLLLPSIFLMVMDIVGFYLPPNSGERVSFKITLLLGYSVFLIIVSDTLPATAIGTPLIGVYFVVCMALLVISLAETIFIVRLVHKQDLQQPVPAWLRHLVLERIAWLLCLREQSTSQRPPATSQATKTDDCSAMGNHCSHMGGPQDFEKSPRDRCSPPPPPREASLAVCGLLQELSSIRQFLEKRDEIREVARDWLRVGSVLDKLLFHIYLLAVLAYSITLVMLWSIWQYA

[3] = target: Sodium-dependent dopamine transporter (Homo sapiens, UniProt Q01959); test: Displacement of [3H]WIN-35428 form human DAT expressed in HEK cell membranes; design: species or system HEK293
[4] = target: Beta-1 adrenergic receptor (Homo sapiens) (UniProt P08588); test: Inhibition of beta1 adrenergic receptor at 10 uM
[5] = target: Beta-2 adrenergic receptor (Homo sapiens) (UniProt P07550); test: Inhibition of beta2 adrenergic receptor at 10 uM
D(3) dopamine receptor = D(3) dopamine receptor (Homo sapiens, UniProt P35462); test: Inhibition of dopamine D3 receptor
[6] = target: 5-hydroxytryptamine receptor 5A (Homo sapiens) (UniProt P47898); test: Inhibition of 5HT5A receptor at 10 uM
Histamine H2 receptor = Histamine H2 receptor (Homo sapiens, UniProt P25021); test: Inhibition of H2 receptor
[7] = target: T3, Muscarinic acetylcholine receptor M5 (Homo sapiens) (UniProt P08912); test: Inhibition of muscarinic M5 receptor at 10 uM
T3 sequence (whole entry): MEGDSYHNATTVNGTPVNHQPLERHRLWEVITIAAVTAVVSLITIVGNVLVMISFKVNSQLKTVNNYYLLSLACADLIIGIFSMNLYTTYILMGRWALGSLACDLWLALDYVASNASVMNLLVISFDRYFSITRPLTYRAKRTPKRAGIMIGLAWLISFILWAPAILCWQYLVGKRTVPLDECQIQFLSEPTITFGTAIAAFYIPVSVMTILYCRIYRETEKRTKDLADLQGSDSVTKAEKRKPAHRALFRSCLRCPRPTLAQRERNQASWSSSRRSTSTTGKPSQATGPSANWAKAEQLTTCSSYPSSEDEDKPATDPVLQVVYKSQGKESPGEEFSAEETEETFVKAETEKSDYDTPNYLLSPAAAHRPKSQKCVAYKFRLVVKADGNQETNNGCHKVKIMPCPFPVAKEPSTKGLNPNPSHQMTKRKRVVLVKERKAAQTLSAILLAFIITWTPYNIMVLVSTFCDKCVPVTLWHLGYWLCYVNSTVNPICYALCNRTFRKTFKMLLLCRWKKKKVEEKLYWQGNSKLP

[8] = target: T4, Muscarinic acetylcholine receptor M1 (Homo sapiens) (UniProt P11229); test: Inhibition of muscarinic M1 receptor at 10 uM
T4 sequence (whole entry): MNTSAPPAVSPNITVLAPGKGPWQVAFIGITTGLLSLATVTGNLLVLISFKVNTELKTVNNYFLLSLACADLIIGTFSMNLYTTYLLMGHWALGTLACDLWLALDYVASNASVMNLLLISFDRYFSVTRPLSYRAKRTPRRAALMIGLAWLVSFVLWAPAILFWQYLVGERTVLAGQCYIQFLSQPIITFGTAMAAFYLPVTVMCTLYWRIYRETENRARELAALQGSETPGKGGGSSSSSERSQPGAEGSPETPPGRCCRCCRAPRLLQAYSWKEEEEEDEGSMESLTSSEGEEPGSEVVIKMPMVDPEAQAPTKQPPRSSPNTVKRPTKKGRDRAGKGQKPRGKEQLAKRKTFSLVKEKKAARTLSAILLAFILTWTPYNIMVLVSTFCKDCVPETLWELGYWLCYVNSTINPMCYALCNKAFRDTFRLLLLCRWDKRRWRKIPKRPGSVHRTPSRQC

[9] = Displacement of [3H]-ditolyl guanidine from sigma 2 receptor in rat PC12 cells; assay type: cell-based; details: pc-12
[10] = target: D(2) dopamine receptor (Homo sapiens) (UniProt P14416); test: Inhibition of dopamine D2 receptor at 10 uM
[11] = target: T5, Alpha-1D adrenergic receptor (Homo sapiens) (UniProt P25100); test: Inhibition of Alpha-1D adrenergic receptor at 10 uM
T5 sequence (whole entry): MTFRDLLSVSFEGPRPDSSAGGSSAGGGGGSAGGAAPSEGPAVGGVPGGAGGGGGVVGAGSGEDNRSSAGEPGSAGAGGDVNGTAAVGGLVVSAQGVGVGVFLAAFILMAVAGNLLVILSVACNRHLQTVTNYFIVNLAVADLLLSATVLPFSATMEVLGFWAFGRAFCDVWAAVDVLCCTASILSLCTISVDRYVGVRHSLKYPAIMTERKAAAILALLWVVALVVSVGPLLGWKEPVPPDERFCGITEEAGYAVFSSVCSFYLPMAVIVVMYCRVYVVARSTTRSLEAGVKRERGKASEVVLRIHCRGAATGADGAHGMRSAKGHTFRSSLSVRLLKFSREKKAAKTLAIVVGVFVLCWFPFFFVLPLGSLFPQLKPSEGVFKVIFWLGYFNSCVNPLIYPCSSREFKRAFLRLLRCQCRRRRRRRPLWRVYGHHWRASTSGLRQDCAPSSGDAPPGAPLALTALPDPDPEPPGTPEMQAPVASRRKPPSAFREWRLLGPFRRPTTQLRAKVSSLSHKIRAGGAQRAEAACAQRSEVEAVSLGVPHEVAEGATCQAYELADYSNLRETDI

Sequence of Sodium-dependent dopamine transporter (Q01959 whole entry): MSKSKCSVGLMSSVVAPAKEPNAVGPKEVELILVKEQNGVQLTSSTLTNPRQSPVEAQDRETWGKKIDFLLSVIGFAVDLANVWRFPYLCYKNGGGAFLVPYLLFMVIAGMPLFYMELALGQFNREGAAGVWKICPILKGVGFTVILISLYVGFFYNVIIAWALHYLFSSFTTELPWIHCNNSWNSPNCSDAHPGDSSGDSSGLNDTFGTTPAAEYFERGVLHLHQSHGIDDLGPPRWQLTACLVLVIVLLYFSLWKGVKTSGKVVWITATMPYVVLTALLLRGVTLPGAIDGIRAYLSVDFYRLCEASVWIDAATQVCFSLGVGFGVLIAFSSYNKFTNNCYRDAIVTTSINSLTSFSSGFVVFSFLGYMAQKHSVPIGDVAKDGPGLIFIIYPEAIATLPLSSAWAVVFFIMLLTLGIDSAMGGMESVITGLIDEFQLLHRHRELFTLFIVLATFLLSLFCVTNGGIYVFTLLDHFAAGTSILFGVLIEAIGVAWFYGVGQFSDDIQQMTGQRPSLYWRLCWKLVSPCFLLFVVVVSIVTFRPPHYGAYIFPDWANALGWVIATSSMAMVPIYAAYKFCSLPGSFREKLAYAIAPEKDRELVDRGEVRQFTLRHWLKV
Sequence of Histamine H2 receptor (P25021 whole entry): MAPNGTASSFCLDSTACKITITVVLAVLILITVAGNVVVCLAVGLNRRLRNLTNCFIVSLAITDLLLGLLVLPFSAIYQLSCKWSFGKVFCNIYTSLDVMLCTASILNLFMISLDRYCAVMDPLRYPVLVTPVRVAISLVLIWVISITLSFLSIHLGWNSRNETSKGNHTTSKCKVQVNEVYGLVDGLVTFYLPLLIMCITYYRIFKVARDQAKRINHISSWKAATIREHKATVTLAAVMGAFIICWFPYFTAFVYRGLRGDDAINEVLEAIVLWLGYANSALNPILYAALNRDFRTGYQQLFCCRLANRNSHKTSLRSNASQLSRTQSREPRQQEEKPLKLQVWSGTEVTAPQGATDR
Sequence of Beta-2 adrenergic receptor (Homo sapiens) (P07550 whole entry, looked up): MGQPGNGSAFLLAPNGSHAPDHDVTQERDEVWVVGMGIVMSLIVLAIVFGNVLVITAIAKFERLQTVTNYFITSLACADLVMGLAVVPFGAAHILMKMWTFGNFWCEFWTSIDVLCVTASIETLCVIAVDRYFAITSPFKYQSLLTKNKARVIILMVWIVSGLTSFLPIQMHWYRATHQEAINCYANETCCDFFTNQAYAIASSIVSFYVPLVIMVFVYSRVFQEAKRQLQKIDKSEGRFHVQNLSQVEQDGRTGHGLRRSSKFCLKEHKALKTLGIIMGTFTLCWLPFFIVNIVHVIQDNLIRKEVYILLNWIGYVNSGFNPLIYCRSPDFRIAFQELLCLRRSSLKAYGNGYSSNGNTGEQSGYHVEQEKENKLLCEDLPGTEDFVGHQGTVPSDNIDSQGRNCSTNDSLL
Sequence of 5-hydroxytryptamine receptor 5A (Homo sapiens) (P47898 whole entry): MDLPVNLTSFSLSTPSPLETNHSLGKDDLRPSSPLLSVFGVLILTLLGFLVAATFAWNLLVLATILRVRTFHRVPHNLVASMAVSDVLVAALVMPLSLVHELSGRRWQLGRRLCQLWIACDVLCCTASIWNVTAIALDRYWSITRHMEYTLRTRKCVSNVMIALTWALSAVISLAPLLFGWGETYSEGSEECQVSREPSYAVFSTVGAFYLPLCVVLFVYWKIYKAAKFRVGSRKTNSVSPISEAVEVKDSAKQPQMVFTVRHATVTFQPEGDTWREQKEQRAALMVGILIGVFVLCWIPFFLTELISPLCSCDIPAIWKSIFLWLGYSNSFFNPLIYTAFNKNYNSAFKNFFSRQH
Sequence of D(2) dopamine receptor (Homo sapiens) (P14416 whole entry): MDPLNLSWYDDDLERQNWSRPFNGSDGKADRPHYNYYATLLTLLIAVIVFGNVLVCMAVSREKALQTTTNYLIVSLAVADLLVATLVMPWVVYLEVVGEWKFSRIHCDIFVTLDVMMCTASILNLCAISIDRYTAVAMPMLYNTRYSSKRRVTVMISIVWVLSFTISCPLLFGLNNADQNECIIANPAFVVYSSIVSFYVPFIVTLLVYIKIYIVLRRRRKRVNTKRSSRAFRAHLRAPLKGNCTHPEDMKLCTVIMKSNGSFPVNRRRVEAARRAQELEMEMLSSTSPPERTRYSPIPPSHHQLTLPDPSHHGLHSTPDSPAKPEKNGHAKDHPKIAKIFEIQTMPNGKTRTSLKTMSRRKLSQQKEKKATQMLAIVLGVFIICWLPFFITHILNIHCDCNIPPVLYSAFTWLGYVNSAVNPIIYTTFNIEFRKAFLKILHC
Sequence of Beta-1 adrenergic receptor (Homo sapiens) (P08588 whole entry, looked up): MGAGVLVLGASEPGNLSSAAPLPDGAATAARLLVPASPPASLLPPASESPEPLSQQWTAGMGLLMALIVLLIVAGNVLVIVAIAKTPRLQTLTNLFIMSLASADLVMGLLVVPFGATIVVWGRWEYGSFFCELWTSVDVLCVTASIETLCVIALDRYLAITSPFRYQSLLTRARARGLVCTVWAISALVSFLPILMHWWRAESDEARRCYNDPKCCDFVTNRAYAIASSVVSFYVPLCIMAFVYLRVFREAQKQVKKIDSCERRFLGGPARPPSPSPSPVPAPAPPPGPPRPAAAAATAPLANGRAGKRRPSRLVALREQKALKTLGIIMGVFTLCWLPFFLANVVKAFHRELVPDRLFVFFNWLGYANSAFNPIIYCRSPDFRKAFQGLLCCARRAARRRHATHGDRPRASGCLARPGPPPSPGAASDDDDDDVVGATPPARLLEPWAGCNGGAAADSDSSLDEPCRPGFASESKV
Sequence of D(3) dopamine receptor (P35462 whole entry): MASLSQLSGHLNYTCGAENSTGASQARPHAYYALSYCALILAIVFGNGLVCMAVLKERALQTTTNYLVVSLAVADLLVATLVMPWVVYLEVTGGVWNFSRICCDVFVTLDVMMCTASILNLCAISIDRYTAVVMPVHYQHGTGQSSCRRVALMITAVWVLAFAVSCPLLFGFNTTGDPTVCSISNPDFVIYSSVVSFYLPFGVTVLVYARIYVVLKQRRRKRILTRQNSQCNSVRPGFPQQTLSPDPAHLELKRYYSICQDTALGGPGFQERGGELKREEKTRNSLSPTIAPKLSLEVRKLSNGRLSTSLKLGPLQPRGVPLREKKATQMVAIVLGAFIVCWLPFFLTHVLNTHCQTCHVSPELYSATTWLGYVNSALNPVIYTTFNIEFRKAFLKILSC

Compound | inhibition [1] [%] | inhibition [2] [%] | Ki [3] [µM] | inhibition [4] [%] | inhibition [5] [%] | Ki (D(3) dopamine receptor) [µM] | inhibition [6] [%] | Ki (Histamine H2 receptor) [µM] | inhibition [7] [%] | inhibition [8] [%] | Ki [9] [µM] | inhibition [10] [%] | inhibition [11] [%]
CN(CCc1cccc(F)c1)[C@H]1C2C3CC4C5C3CC2C5C41 (some centres undefined) | < 50 | < 50 | 0.101 | < 50 | < 50 | > 10 | < 50 | 4.45 | < 50 | < 50 | 0.039 | < 50 | < 50
Fc1cccc(CCN[C@H]2C3C4CC5C6C4CC3C6C52)c1 (some centres undefined) | < 50 | < 50 | 1.68 | < 50 | < 50 | 5.21 | < 50 | 4.42 | – | < 50 | 0.006 | < 50 | < 50
CN(Cc1cccc(F)c1)[C@H]1C2C3CC4C5C3CC2C5C41 (some centres undefined) | < 50 | < 50 | 0.0012 | < 50 | < 50 | – | < 50 | – | < 50 | < 50 | 0.117 | < 50 | < 50
Fc1cccc(CN[C@H]2C3C4CC5C6C4CC3C6C52)c1 (some centres undefined) | < 50 | < 50 | 3.44 | < 50 | < 50 | 7.16 | < 50 | 2.15 | < 50 | < 50 | 0.019 | < 50 | < 50
